Measurements taken from article PMC5034536, “Molecular insights into substrate recognition and catalytic mechanism of the chaperone and FKBP peptidyl-prolyl isomerase SlyD” (BMC Biology, 2016).
Values joined by “and” are separate entries in the source; they are usually repeats but may differ in a detail not shown here. Identical values can stand only once.

Columns and labels:
TtSlyDFL = assay: Tetrapeptide cis/trans isomerization activity by NMR lineshape analysis; assay type: biochemical, Thermus thermophilus
From the text: (§1) In order to accurately measure the catalytic activity of TtSlyDFL on peptidyl-prolyl cis/trans isomerization, we carried out Michaelis-Menten studies under equilibrium conditions using NMR lineshape analysis, which is capable of monitoring the rate of exchange between cis and trans conformations of the peptide substrate. Initially, we benchmarked the method against literature data using the standard suc-ALPF-pNA tetrapeptide (Fig. 7a). […] For the TtSlyDΔIF construct, we obtained kcat/KM = 0.85 ± 0.01 μM^−1s^−1, showing a minor influence of the IF domain.
(§2) Lineshape analysis was performed using MATLAB.

TtSlyDΔIF = assay: as above; assay type: biochemical, Thermus thermophilus
From the text: as §1, §2

E. coli SlyD = details: estimated, E. coli SlyD at high salt concentration; cited from earlier work
human FKBP12 = human FKBP12 with suc-ALPF-pNA as a substrate; ref U Weininger, unpublished data; cited from earlier work
TtSlyDFL Y13F = TtSlyDFL Y13F (Thermus thermophilus, UniProt Q5SLE7, Y13F); assay: Tetrapeptide activity by NMR lineshape analysis
Sequence of TtSlyDFL Y13F (Q5SLE7 entry or part of it Y13F): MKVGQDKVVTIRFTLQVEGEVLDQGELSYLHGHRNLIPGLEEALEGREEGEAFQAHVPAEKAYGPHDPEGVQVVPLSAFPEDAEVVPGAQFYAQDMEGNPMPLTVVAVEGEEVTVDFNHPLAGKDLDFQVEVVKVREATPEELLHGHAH
Experimental: (§3) Although the kcat/KM and KD values refer to different substrates, this analysis should provide valuable insights into the relative impact of a given mutation on binding and turnover.
(§4) NMR samples contained TtSlyD in 20 mM HEPES, 100 mM NaCl, pH 7.5, and 10 % (v/v) D2O. All experiments were performed at a static magnetic field strength of 14.1 T and a temperature of 25 °C. […] Lineshape analysis was performed using MATLAB.
(§5) For tetrapeptide activity studies, one-dimensional ^1H spectra of 500 μM suc-ALPF-pNA tetrapeptide containing 2 μM, 4 μM, or 6 μM of TtSlyD were recorded for the different mutants [59].

TtSlyDFL D23A = TtSlyDFL D23A (Thermus thermophilus, UniProt Q5SLE7, D23A); assay: Tetrapeptide activity by NMR lineshape analysis
Sequence of TtSlyDFL D23A (Q5SLE7 entry or part of it D23A): as the sequence (Q5SLE7 entry or part of it Y13F) above, with F13Y, D23A counted along it
Experimental: as §3, §4, §5

TtSlyDFL N35A = TtSlyDFL N35A (Thermus thermophilus, UniProt Q5SLE7, N35A); assay: Tetrapeptide activity by NMR lineshape analysis
Sequence of TtSlyDFL N35A (Q5SLE7 entry or part of it N35A): as the sequence (Q5SLE7 entry or part of it Y13F) above, with F13Y, N35A counted along it
Experimental: as §3, §4, §5

TtSlyDFL I37G = TtSlyDFL I37G (Thermus thermophilus, UniProt Q5SLE7, I37G); assay: Tetrapeptide activity by NMR lineshape analysis
Sequence of TtSlyDFL I37G (Q5SLE7 entry or part of it I37G): as the sequence (Q5SLE7 entry or part of it Y13F) above, with F13Y, I37G counted along it
Experimental: as §3, §4, §5

TtSlyDFL Y63F = TtSlyDFL Y63F (Thermus thermophilus, UniProt Q5SLE7, Y63F); assay: Tetrapeptide activity by NMR lineshape analysis
Sequence of TtSlyDFL Y63F (Q5SLE7 entry or part of it Y63F): as the sequence (Q5SLE7 entry or part of it Y13F) above, with F13Y, Y63F counted along it
Experimental: as §3, §4, §5

TtSlyDFL Y63A = TtSlyDFL Y63A (Thermus thermophilus, UniProt Q5SLE7, Y63A); assay: Tetrapeptide activity by NMR lineshape analysis
Sequence of TtSlyDFL Y63A (Q5SLE7 entry or part of it Y63A): as the sequence (Q5SLE7 entry or part of it Y13F) above, with F13Y, Y63A counted along it
Experimental: as §4, §5

TtSlyDFL A78G = TtSlyDFL A78G (Thermus thermophilus, UniProt Q5SLE7, A78G); assay: Tetrapeptide activity by NMR lineshape analysis
Sequence of TtSlyDFL A78G (Q5SLE7 entry or part of it A78G): as the sequence (Q5SLE7 entry or part of it Y13F) above, with F13Y, A78G counted along it
Experimental: as §4, §5

TtSlyDFL Y92A = TtSlyDFL Y92A (Thermus thermophilus, UniProt Q5SLE7, Y92A); assay: Tetrapeptide activity by NMR lineshape analysis
Sequence of TtSlyDFL Y92A (Q5SLE7 entry or part of it Y92A): as the sequence (Q5SLE7 entry or part of it Y13F) above, with F13Y, Y92A counted along it
Experimental: as §4, §5

TtSlyDFL Q94A = TtSlyDFL Q94A (Thermus thermophilus, UniProt Q5SLE7, Q94A); assay: Tetrapeptide activity by NMR lineshape analysis
Sequence of TtSlyDFL Q94A (Q5SLE7 entry or part of it Q94A): as the sequence (Q5SLE7 entry or part of it Y13F) above, with F13Y, Q94A counted along it
Experimental: as §4, §5

TtSlyDFL M96A = TtSlyDFL M96A (Thermus thermophilus, UniProt Q5SLE7, M96A); assay: Tetrapeptide activity by NMR lineshape analysis
Sequence of TtSlyDFL M96A (Q5SLE7 entry or part of it M96A): as the sequence (Q5SLE7 entry or part of it Y13F) above, with F13Y, M96A counted along it
Experimental: as §4, §5

TtSlyDFL H119A = TtSlyDFL H119A (Thermus thermophilus, UniProt Q5SLE7, H119A); assay: Tetrapeptide activity by NMR lineshape analysis
Sequence of TtSlyDFL H119A (Q5SLE7 entry or part of it H119A): as the sequence (Q5SLE7 entry or part of it Y13F) above, with F13Y, H119A counted along it
Experimental: (§6) NMR samples contained TtSlyD in 20 mM HEPES, 100 mM NaCl, pH 7.5, and 10 % (v/v) D2O. All experiments were performed at a static magnetic field strength of 14.1 T and a temperature of 25 °C. The spectra were processed with NMRpipe [57] and analyzed with NMRview [58], except one-dimensional spectra, which were processed and analyzed using VNMRJ (Agilent, Inc.). Lineshape analysis was performed using MATLAB.
as §5

TtSlyDFL F128A = TtSlyDFL F128A (Thermus thermophilus, UniProt Q5SLE7, F128A); assay: Tetrapeptide activity by NMR lineshape analysis
Sequence of TtSlyDFL F128A (Q5SLE7 entry or part of it F128A): as the sequence (Q5SLE7 entry or part of it Y13F) above, with F13Y, F128A counted along it
Experimental: as §6, §5

[1] = substrate 500 μM suc-ALPF-pNA, NMR lineshape analysis, 25 °C
[2] = suc-ALPF-pNA, relative to wild-type TtSlyDFL

Q: What does the source list for “succinyl-Ala-Leu-Pro-Phe-4-nitroanilide [suc-ALPF-pNA]”?
A: kcat (TtSlyDFL; TtSlyD, suc-ALPF-pNA tetrapeptide as substrate): > 10,000 s^−1; kcat/KM (TtSlyDFL; TtSlyDFL, 500 μM suc-ALPF-pNA, enzyme concentration varied, linear regression, 25 °C): 1.47 ± 0.05 10^6 M^−1s^−1 and 1.5 10^6 M^−1s^−1; Activity (kcat/KM) (TtSlyDFL; wild-type TtSlyDFL, substrate 500 μM suc-ALPF-pNA, NMR lineshape analysis, 25 °C): 1.47 ± 0.05 10^6 M^-1 s^-1; kcat/KM (TtSlyDFL; wild-type TtSlyDFL, suc-ALPF-pNA as substrate, NMR lineshape analysis, equilibrium conditions, 25 °C): 1.47 ± 0.05 µM⁻¹ s⁻¹; Relative activity (TtSlyDFL; wild-type TtSlyDFL, suc-ALPF-pNA, reference): 100%; kcat/KM (TtSlyDΔIF; 500 μM suc-ALPF-pNA, enzyme concentration varied, linear regression, 25 °C): 0.85 ± 0.01 10^6 M^−1s^−1; Activity (kcat/KM) (TtSlyDΔIF; [1]): 0.85 ± 0.01 10^6 M^-1 s^-1; kcat/KM (TtSlyDΔIF; suc-ALPF-pNA as substrate, NMR lineshape analysis, 25 °C): 0.85 ± 0.01 µM⁻¹ s⁻¹; Relative activity (TtSlyDΔIF; [2]): 58%; Kd (E. coli SlyD): ~44 µM; kcat (human FKBP12): above 10,000 s^−1; Activity (kcat/KM) (TtSlyDFL Y13F; [1]): 1.35 ± 0.17 10^6 M/s; Relative activity (TtSlyDFL Y13F; [2]): 92%; Activity (kcat/KM) (TtSlyDFL D23A; [1]): 1.15 ± 0.21 10^6 M/s; Relative activity (TtSlyDFL D23A; [2]): 78%; Activity (kcat/KM) (TtSlyDFL N35A; [1]): 1.04 ± 0.28 10^6 M/s; Relative activity (TtSlyDFL N35A; [2]): 71%; Activity (kcat/KM) (TtSlyDFL I37G; [1]): 0.73 ± 0.12 10^6 M/s; Relative activity (TtSlyDFL I37G; [2]): 50%; Activity (kcat/KM) (TtSlyDFL Y63F; [1]): 1.12 ± 0.11 10^6 M/s; Relative activity (TtSlyDFL Y63F; [2]): 76%; Activity (kcat/KM) (TtSlyDFL Y63A; [1]): 0.31 ± 0.19 10^6 M/s; Relative activity (TtSlyDFL Y63A; [2]): 21%; Activity (kcat/KM) (TtSlyDFL A78G; [1]): 0.76 ± 0.14 10^6 M/s; Relative activity (TtSlyDFL A78G; [2]): 52%; Activity (kcat/KM) (TtSlyDFL Y92A; [1]): 0.53 ± 0.12 10^6 M/s; Relative activity (TtSlyDFL Y92A; [2]): 36%; Activity (kcat/KM) (TtSlyDFL Q94A; [1]): 1.44 ± 0.49 10^6 M/s; Relative activity (TtSlyDFL Q94A; [2]): 98%; Activity (kcat/KM) (TtSlyDFL M96A; [1]): 0.58 ± 0.15 10^6 M/s; Relative activity (TtSlyDFL M96A; [2]): 39%; Activity (kcat/KM) (TtSlyDFL H119A; [1]): 1.23 ± 0.02 10^6 M/s; Relative activity (TtSlyDFL H119A; [2]): 84%; Activity (kcat/KM) (TtSlyDFL F128A; [1]): 0.52 ± 0.16 10^6 M/s; Relative activity (TtSlyDFL F128A; [2]): 35%
